Measured values as given in patent publication US10399968B2, “Hydroxyalkyl thiadiazole derivatives” (Daiichi Sankyo Company, Limited, priority 2015, dated 2019).
Values after ≈ are worked out from the molar mass of the structure shown.

Columns and labels:
E. faecium ATCC 29212 = experiment: Susceptibility of bacteria, broth microdilution MIC; assay type: cell-based; settings: Enterococcus faecium, ATCC29212
Description: (§1) The antibacterial activity of the compounds of the present invention was tested by the broth microdilution method. The assay was carried out according to the CLSI guidelines for managing the procedures of susceptibility tests: “M7-A7 Methods for Dilution Antimicrobial Susceptibility Tests for Bacteria That Grow Aerobically; Approved Standard-Seventh Edition (2006)”. Test strains were grown on appropriate agar plates overnight. A broth containing the test compound diluted serially 2-fold and diluents were dispensed at 100 μL to each well of a 96-well microplate. As a growth control, a well with a broth not containing the test compound was also prepared. Colonies grown on the plates were suspended in saline, adjusted to 0.5 McFarland (OD625=0.08 to 0.10) using a colorimeter, and then diluted 10-fold with saline. The bacterial suspension was inoculated at 4 μL into each well of the microplate using a bacterial suspension inoculation apparatus. The inoculated microplate was incubated at 35° C. overnight (about 20 hours). The growth condition was observed by the naked eye, and the minimum concentration to inhibit bacterial proliferation was defined as a minimum inhibitory concentration (MIC).

[1] = test system: Haemophilus influenzae ATCC 49247; experiment: as above; assay type: cell-based; settings: ATCC49247
Description: as §1

[2] = test system: Streptococcus pneumoniae ATCC 49619; experiment: as above; assay type: cell-based; settings: ATCC49619
Description: as §1

Staphylococcus aureus = experiment: Neutropenic mouse thigh or calf muscle infection model; assay type: in vivo; settings: neutropenic mice, compared with linezolid
Description: After culture in broth medium (i) suitable diluent of a bacterial suspension of the Staphylococcus aureus strain, or (ii) equivalent mixture of suitable diluent of a bacterial suspension of the Enterococcus faecium strain and a 10% mucin suspension were used as the inoculum. The bacterial suspension was inoculated under anesthesia with a ketamine-xylazine mixture into the thigh or calf muscle of Swiss albino mice or ICR mice (4- to 6-week-old) compromised by the cyclophosphamide administration. The drug was administered to the mice 1 to 8 times at an interval of 3 to 24 hours. The number of bacteria in the thigh or calf muscle was counted for the non-treated group immediately before initial administration of the drug (pre-control), for the non-treated group (post-control) and for the drug-administered group on the next day of administration of the drug and infection. A change in the number of bacteria in the thigh or calf muscle was used as an index of therapeutic effect.

[3] = test system: Clostridium difficile 2009155, a NAP1/027 strain; experiment: Hamster CDI model; assay type: in vivo; settings: 0.3 mg/kg/day by oral route, 5 days
Description: The in vivo efficacy of test compounds were evaluated in a hamster CDI model caused by Clostridium difficile 2009155, a NAP1/027 strain. Syrine hamsters (6-8-weeks old) were primed with a single subcutaneous injection of clindamycin (30 mg/kg) 1-5 days prior to infection. Hamsters were infected by oral gavage with 1 ml of spore suspension ([…]) prepared in PBS. The drug was administered to the hamsters 6 hours post infection by oral or subcutaneous route at an interval of 24 hours for 5 days. The death and survival of the non-treated group and the drug-administered group were recorded once daily for 35 days.

P. acnes ATCC 6523 = experiment: Susceptibility of P. acnes, agar dilution MIC; assay type: cell-based; settings: Cutibacterium acnes, ATCC6523, anaerobic
Description: (§2) The antibacterial activity of the compounds of the present invention against P. acnes clinical isolates was tested by the agar dilution method. The assay was carried out according to the CLSI guidelines document (Clinical and Laboratory Standards Institute, 2012 & 2016). The test strains were spread on supplemented Brucella agar (SBA) plates and grown for 42 to 48 hours at 36° C. under anaerobic condition. The test compound dilutions were prepared with Brucella broth and SBA plates containing dilution of test compound were prepared. As an anaerobic growth control and to check the aerobic contamination, plates not containing the test compound were also prepared. Colonies grown on plates were suspended with Brucella broth to adjust the turbidity to 0.5 McFarland using a densitometer. Suspension (1-2 μL) of the test strains was inoculated onto each agar surface by using a bacterial suspension inoculation apparatus (multipoint inoculator). After anaerobic incubation for 42 to 48 hours at 36° C., absence and presence of growth of each strain on growth control plates and test compounds plate were examined with unaided eye. The MIC was determined at which a marked reduction occurs in the appearance of growth on the test plate as compared to that of growth on the anaerobic control plates.

P. acnes ATCC 6921 = experiment: Susceptibility of P. acnes, agar dilution MIC; assay type: cell-based; settings: Cutibacterium acnes, ATCC6921, anaerobic
Description: as §2

P. acnes IHMA 103740 = experiment: Susceptibility of P. acnes, agar dilution MIC; assay type: cell-based; settings: Cutibacterium acnes, IHMA103740, anaerobic
Description: as §2

P. acnes IHMA 775486 = experiment: Susceptibility of P. acnes, agar dilution MIC; assay type: cell-based; settings: Cutibacterium acnes, IHMA775486, anaerobic
Description: as §2

[4] = test system: N. gonorrhoeae clinical isolates; experiment: Susceptibility of N. gonorrhoeae, agar dilution MIC; assay type: cell-based
Description: The antibacterial activity of the compounds of the present invention against N. gonorrhoeae clinical isolates was tested by the agar dilution method [Clinical and Laboratory Standards Institute, 2016]. The test strains were spread on chocolate agar plates and grown for 20-24 h at 36° C. in 5% carbon dioxide. The test compound dilutions were prepared with broth and agar MIC plates were prepared using GC agar base supplemented with haemoglobin and 1% IsoVitaleX plates. As growth control plates not containing the test compound were also prepared. Colonies grown on plates were suspended with broth to adjust the turbidity to 0.5 McFarland using a densitometer. Suspension (1-2 μL) of the test strains was inoculated onto each agar surface by using a bacterial suspension inoculation apparatus (multipoint inoculator). After aerobic incubation for 20-24 h at 36° C. in 5% carbon dioxide, absence and presence of growth of each strain on growth control plates and test compounds plate were examined with unaided eye. The MIC was determined at which a marked reduction occurs in the appearance of growth on the test plate as compared to that of growth on the aerobic control plates.

Row | SMILES | MIC (E. faecium ATCC 29212) [µg/mL] | MIC [1] [µg/mL] | MIC [2] [µg/mL] | therapeutic effect against Staphylococcus aureus (number of bacteria in thigh or calf muscle) (Staphylococcus aureus) | survival on day 35 [3] [%] | MIC (P. acnes ATCC 6523) [µg/mL] | MIC (P. acnes ATCC 6921) [µg/mL] | MIC (P. acnes IHMA 103740) [µg/mL] | MIC (P. acnes IHMA 775486) [µg/mL] | MIC [4] [µg/mL]
1 | CCc1[nH]c(C(=O)N[C@@H]2CCN(c3nnc(C(C)(C)O)s3)C[C@@H]2OC)nc1Cl [Compound No. 2, 4-Chloro-5-ethyl-N-{(3S,4R)-1-[5-(2-hydroxypropan-2-yl)-1,3,4-thiadiazol-2-yl]-3-methoxypiperidin-4-yl}-1H-imidazole-2-carboxamide] | 0.25 (≈ 0.583 µM) | 0.5 (≈ 1.17 µM) | 0.25 (≈ 0.583 µM) | equivalent to or higher than linezolid | 100 | 0.125 (≈ 0.291 µM) | 0.125 (≈ 0.291 µM) | 0.125 (≈ 0.291 µM) | 0.125 (≈ 0.291 µM) | 0.25 (≈ 0.583 µM)
2 | CCc1[nH]c(C(=O)N[C@@H]2CCN(c3nnc([C@H](C)O)s3)C[C@@H]2OC)nc1Cl (single isomer, unassigned) [Compound No. 5] | 0.25 (≈ 0.603 µM) | 1 (≈ 2.41 µM) | 0.25 (≈ 0.603 µM) | equivalent to or higher than linezolid | 100 |  |  |  |  | 
